Values after ≈ are worked out from the molar mass of the structure shown. Active and inactive are the calls of the source. No cut-off for these calls is given here.
Tests used:
Cryptococcus neoformans [1] = experiment: Antifungal activity against Cryptococcus neoformans ATCC 90112 after 48 hrs by broth microdilution susceptibility assay; assay type: functional; conditions: ATCC 90112, 48 h
Cryptococcus neoformans [2] = experiment: Antimicrobial activity against Cryptococcus neoformans ATCC 90112 assessed clear zone in inhibition per disk by CLSI disk diffusion susceptibility assay; assay type: functional
Neisseria gonorrhoeae [3] = experiment: Antimicrobial activity against Neisseria gonorrhoeae ATCC 49226 assessed clear zone of inhibition measured per disk by CLSI disk diffusion susceptibility assay; assay type: functional
DU-145 = experiment: Cytotoxicity against human DU145 cells after 48 hrs by sulforhodamine B assay; assay type: functional
Escherichia coli [4] = experiment: Antimicrobial activity against Escherichia coli ATCC 25922 assessed clear zone in inhibition per disk by CLSI disk diffusion susceptibility assay; assay type: functional
Streptococcus pneumoniae [5] = experiment: Antimicrobial activity against Streptococcus pneumoniae ATCC 6303 by broth microdilution susceptibility assay; assay type: functional
Enterobacter cloacae [6] = experiment: Antimicrobial activity against Enterobacter cloacae ATCC 13047 assessed clear zone in inhibition per disk by CLSI disk diffusion susceptibility assay; assay type: functional
Streptococcus pneumoniae [7] = experiment: Antimicrobial activity against Streptococcus pneumoniae ATCC 6303 after 24 hrs by broth microdilution susceptibility assay; assay type: functional; conditions: ATCC 6303, 24 h
BXPC-3 = experiment: Cytotoxicity against human BxPC3 cells after 48 hrs by sulforhodamine B assay; assay type: functional
OVCAR-3 = experiment: Cytotoxicity against human OVCAR-3 cells after 48 hrs by sulforhodamine B assay; assay type: functional
Cryptococcus neoformans [8] = experiment: Antifungal activity against Cryptococcus neoformans ATCC 90112 after 72 hrs by broth microdilution susceptibility assay; assay type: functional; conditions: ATCC 90112, 72 h
KM-20L2 = experiment: Cytotoxicity against human KM20L2 cells after 48 hrs by sulforhodamine B assay; assay type: functional
[9] = Inhibition of tubulin polymerization
Micrococcus luteus [10] = experiment: Antimicrobial activity against Micrococcus luteus Presque Isle 456 assessed clear zone in inhibition per disk by CLSI disk diffusion susceptibility assay; assay type: functional
[11] = test system: Stenotrophomonas maltophilia; experiment: Antimicrobial activity against Stenotrophomonas maltophilia ATCC 13637 assessed clear zone in inhibition per disk by CLSI disk diffusion susceptibility assay; assay type: functional
MCF7 = experiment: Cytotoxicity against human MCF7 cells after 48 hrs by sulforhodamine B assay; assay type: functional
Staphylococcus aureus [12] = experiment: Antimicrobial activity against Staphylococcus aureus ATCC 29213 by broth microdilution susceptibility assay; assay type: functional
Streptococcus pneumoniae [13] = experiment: Antimicrobial activity against Streptococcus pneumoniae ATCC 6303 assessed clear zone in inhibition per disk by CLSI disk diffusion susceptibility assay; assay type: functional
SF-268 = experiment: Cytotoxicity against human SF268 cells after 48 hrs by sulforhodamine B assay; assay type: functional
Candida albicans [14] = experiment: Antifungal activity against Candida albicans ATCC 90028 after 48 hrs by broth microdilution susceptibility assay; assay type: functional; conditions: ATCC 90028, 48 h
P388 = experiment: Cytotoxicity against mouse P388 cells after 48 hrs by sulforhodamine B assay; assay type: functional; conditions: for EC50: P388, 48 h, read-out: ED50 (the source's name)
SK-MEL-5 = experiment: Cytotoxicity against human SK-MEL-5 cells after 48 hrs by sulforhodamine B assay; assay type: functional
Enterococcus faecalis [15] = experiment: Antimicrobial activity against Enterococcus faecalis ATCC 29212 assessed clear zone in inhibition per disk by CLSI disk diffusion susceptibility assay; assay type: functional
NCI-H460 = experiment: Cytotoxicity against human NCI-H460 cells after 48 hrs by sulforhodamine B assay; assay type: functional
Enterobacter cloacae [16] = experiment: Antimicrobial activity against Enterobacter cloacae ATCC 13047 by broth microdilution susceptibility assay; assay type: functional
Escherichia coli [17] = experiment: Antimicrobial activity against Escherichia coli ATCC 25922 by broth microdilution susceptibility assay; assay type: functional
Candida albicans [18] = experiment: Antifungal activity against Candida albicans ATCC 90028 after 24 hrs by broth microdilution susceptibility assay; assay type: functional; conditions: ATCC 90028, 24 h
[19] = test system: Stenotrophomonas maltophilia; experiment: Antimicrobial activity against Stenotrophomonas maltophilia ATCC 13637 by broth microdilution susceptibility assay; assay type: functional
Neisseria gonorrhoeae [20] = experiment: Antimicrobial activity against Neisseria gonorrhoeae ATCC 49226 by broth microdilution susceptibility assay; assay type: functional
A498 = experiment: Cytotoxicity against human A498 cells after 48 hrs by sulforhodamine B assay; assay type: functional
SF-295 = experiment: Cytotoxicity against human SF295 cells after 48 hrs by sulforhodamine B assay; assay type: functional
Micrococcus luteus [21] = experiment: Antimicrobial activity against Micrococcus luteus Presque Isle 456 by broth microdilution susceptibility assay; assay type: functional
Neisseria gonorrhoeae [22] = experiment: Antimicrobial activity against Neisseria gonorrhoeae ATCC 49226 after 24 hrs by broth microdilution susceptibility assay; assay type: functional; conditions: ATCC 49226, 24 h
Staphylococcus aureus [23] = experiment: Antimicrobial activity against Staphylococcus aureus ATCC 29213 assessed clear zone in inhibition per disk by CLSI disk diffusion susceptibility assay; assay type: functional
Enterococcus faecalis [24] = experiment: Antimicrobial activity against Enterococcus faecalis ATCC 29212 by broth microdilution susceptibility assay; assay type: functional
Candida albicans [25] = experiment: Antimicrobial activity against Candida albicans ATCC 90028 assessed clear zone in inhibition per disk by CLSI disk diffusion susceptibility assay; assay type: functional
Staphylococcus aureus [26] = experiment: Antimicrobial activity against Staphylococcus aureus ATCC 29213 after 24 hrs by broth microdilution susceptibility assay; assay type: functional; conditions: ATCC 29213, 24 h

| Structure (SMILES) | MFC (Cryptococcus neoformans [1]) [µg/mL] | MIC (Cryptococcus neoformans [2]) [µg] | MIC (Neisseria gonorrhoeae [3]) [µg] | MIC (Escherichia coli [4]) [µg] | MIC (Streptococcus pneumoniae [5]) [µg/mL] | MIC (Enterobacter cloacae [6]) [µg] | MBC (Streptococcus pneumoniae [7]) [µg/mL] | GI50 (OVCAR-3) | MIC (Cryptococcus neoformans [8]) [µg/mL] | IC50 [9] [µM] | MIC (Micrococcus luteus [10]) [µg] | MIC [11] [µg] | MIC (Staphylococcus aureus [12]) [µg/mL] | MIC (Streptococcus pneumoniae [13]) [µg] | MIC (Candida albicans [14]) [µg/mL] | GI50 (SK-MEL-5) | MIC (Enterococcus faecalis [15]) [µg] | MIC (Enterobacter cloacae [16]) [µg/mL] | MIC (Escherichia coli [17]) [µg/mL] | MIC [19] [µg/mL] | further results |
| --- | --- | --- | --- | --- | --- | --- | --- | --- | --- | --- | --- | --- | --- | --- | --- | --- | --- | --- | --- | --- | --- |
| COc1cc(/C=C/[N+](=O)[O-])cc(OC)c1 | 16 (≈ 76.5 µM) | 0.78 | 0.78 | >100 | 64 (≈ 306 µM) | >100 | > 64 | inactive | 16 (≈ 76.5 µM) | 3.9 | 25 | >100 | > 64 | >100 | 16 (≈ 76.5 µM) | inactive | 12.5 | > 64 | > 64 | > 64 | GI50 (DU-145; DU-145, 48 h): 1.5 µg/mL (≈ 7.17 µM); GI50 (BXPC-3; BXPC-3, 48 h): 1.6 µg/mL (≈ 7.65 µM); GI50 (KM-20L2; KM-20L2, 48 h): 1.5 µg/mL (≈ 7.17 µM); GI50 (MCF7; MCF7, 48 h): 1.8 µg/mL (≈ 8.6 µM); GI50 (SF-268; SF-268, 48 h): 2.3 µg/mL (≈ 11 µM); EC50 (P388): 0.24 µg/mL (≈ 1.15 µM); GI50 (NCI-H460; NCI-H460, 48 h): 2 µg/mL (≈ 9.56 µM); MFC (Candida albicans [18]): 16 µg/mL (≈ 76.5 µM); MIC (Neisseria gonorrhoeae [20]): 2 µg/mL (≈ 9.56 µM); GI50 (A498): inactive; GI50 (SF-295): inactive; MIC (Micrococcus luteus [21]): > 64 µg/mL; MBC (Neisseria gonorrhoeae [22]): 2 µg/mL (≈ 9.56 µM); MIC (Staphylococcus aureus [23]): 6.25 µg; MIC (Enterococcus faecalis [24]): > 64 µg/mL; MIC (Candida albicans [25]): 3.12 µg |
| COc1ccc(/C=C/[N+](=O)[O-])cc1O | 32 (≈ 164 µM) | 0.78 | <0.78 | 25 | 64 (≈ 328 µM) | 25 | > 64 | inactive | 32 (≈ 164 µM) | 8.2 | >100 | 25 | > 64 | 1.56 | 16 (≈ 82 µM) | inactive | >100 | > 64 | > 64 | > 64 | GI50 (DU-145): inactive; GI50 (BXPC-3): inactive; GI50 (KM-20L2): inactive; GI50 (MCF7): inactive; GI50 (SF-268): inactive; ED50 (P388): inactive; GI50 (NCI-H460): inactive; MFC (Candida albicans [18]): 32 µg/mL (≈ 164 µM); MIC (Neisseria gonorrhoeae [20]): 4 µg/mL (≈ 20.5 µM); GI50 (A498): inactive; GI50 (SF-295): inactive; MIC (Micrococcus luteus [21]): > 64 µg/mL; MBC (Neisseria gonorrhoeae [22]): 4 µg/mL (≈ 20.5 µM); MIC (Staphylococcus aureus [23]): 50 µg; MIC (Enterococcus faecalis [24]): > 64 µg/mL; MIC (Candida albicans [25]): 3.12 µg |
| COc1cc(/C=C/[N+](=O)[O-])ccc1OCc1ccccc1 | 64 (≈ 224 µM) | <0.78 | <0.78 | >100 | 16 (≈ 56.1 µM) | >100 | 32 (≈ 112 µM) | inactive | 32 (≈ 112 µM) | 2.5 | >100 | >100 | 4 (≈ 14 µM) | 12.5 | > 64 | inactive | >100 | > 64 | > 64 | > 64 | GI50 (DU-145; DU-145, 48 h): 1.3 µg/mL (≈ 4.56 µM); GI50 (BXPC-3; BXPC-3, 48 h): 1.7 µg/mL (≈ 5.96 µM); GI50 (KM-20L2; KM-20L2, 48 h): 1.5 µg/mL (≈ 5.26 µM); MBC (Staphylococcus aureus [26]): > 16 µg/mL; GI50 (MCF7; MCF7, 48 h): 0.96 µg/mL (≈ 3.36 µM); GI50 (SF-268; SF-268, 48 h): 0.94 µg/mL (≈ 3.29 µM); EC50 (P388): 16.6 µg/mL (≈ 58.2 µM); GI50 (NCI-H460; NCI-H460, 48 h): 1.3 µg/mL (≈ 4.56 µM); MIC (Neisseria gonorrhoeae [20]): 1 µg/mL (≈ 3.51 µM); GI50 (A498): inactive; GI50 (SF-295): inactive; MIC (Micrococcus luteus [21]): 4 µg/mL (≈ 14 µM); MBC (Neisseria gonorrhoeae [22]): 2 µg/mL (≈ 7.01 µM); MIC (Staphylococcus aureus [23]): 6.25 µg; MIC (Enterococcus faecalis [24]): > 64 µg/mL; MIC (Candida albicans [25]): >100 µg |

From ChEMBL document CHEMBL1152576, “E-Combretastatin and E-resveratrol structural modifications: antimicrobial and cancer cell growth inhibitory beta-E-nitrostyrenes” (Bioorg Med Chem, 2009)
